Results as given in patent US6914045B2, “Glycopeptide antibiotics” (Wyeth Holdings Corporation, priority 2001, dated 2005).

Legend:
Test in all cases: in vitro antibacterial evaluation, MIC by broth dilution
Type in all cases: cell-based
[1] = system: Enterococcus sp.; conditions: broth dilution, 18 hours at 35° C.
Procedure, shortened: (§1)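 Inoculum 5×10^5 CFU/mL; concentrations 64 to 0.06 μg/mL; MIC defined as lowest inhibitory level. Conducted by broth dilution under NCCLS guidelines.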

[2] = system: Streptococcus sp.; conditions: broth dilution, 18 hours at 35° C.
Procedure, shortened: as §1

[3] = system: Staphylococcus sp.; conditions: broth dilution, 18 hours at 35° C.
Procedure, shortened: as §1

[4] = system: Escherichia coli; conditions: 18 hours at 35° C.

CC(c1ccccc1)C1NC(=O)CNC(=O)C(CO)NC(=O)C(C(O)C2CNC(=N)N2C2OC(CO)C(O)C(O)C2O)NC(=O)C(C(O)C2CNC(=N)N2)NC(=O)C(Cc2ccc(OC3OC(CO)C(OC4OC(COCc5cccs5)C(O)C(O)C4O)C(O)C3O)cc2)NC1=O (stereo not shown) [Example 244]
32 µg/mL: MIC Enterococcus avium (GC 4558) [1] | MIC Enterococcus faecalis (ATCC 29212) [1] | MIC Enterococcus faecalis (GC 2242) [1] | MIC Enterococcus faecalis (GC 2691) [1] | MIC Enterococcus faecalis (GC 4552) [1] | MIC Enterococcus faecalis (GC 4553) [1] | MIC Enterococcus faecalis (GC 6189) [1] | MIC Enterococcus faecium (GC 2243) [1] | MIC Enterococcus faecium (GC 4556) [1] | MIC Enterococcus faecalis (ATCC 29212) ([1]; strain ATCC 29212) | MIC Enterococcus faecium (GC 2243) ([1]; strain GC 2243) | MIC Enterococcus faecalis (GC 4552) ([1]; strain GC 4552) | MIC Enterococcus faecalis (GC 4553) ([1]; strain GC 4553) | MIC Enterococcus faecium (GC 4556) ([1]; strain GC 4556) | MIC Enterococcus avium (GC 4558) ([1]; strain GC 4558) | MIC Enterococcus faecalis (GC 6189) ([1]; strain GC 6189) | MIC Enterococcus faecalis (GC 2242) ([1]; inoculum 5×10^5 CFU/mL, strain GC 2242) | MIC Enterococcus faecalis (GC 2691) ([1]; inoculum 5×10^5 CFU/mL, strain GC 2691)
>64 µg/mL: MIC Escherichia coli (ATCC 25922) [4]
0.5 µg/mL: MIC Streptococcus pneumoniae (GC 1894) [2] | MIC Streptococcus pneumoniae (GC 1894) ([2]; inoculum 5×10^5 CFU/mL, strain GC 1894)
2 µg/mL: MIC Streptococcus pyogenes (GC 4563) [2] | MIC Streptococcus pyogenes (GC 4563) ([2]; inoculum 5×10^5 CFU/mL, strain GC 4563) | MIC Coagulase Negative Staphylococcus (GC 4548) [3] | MIC Coagulase Negative Staphylococcus (GC 4549) [3] | MIC Coagulase Negative Staphylococcus (GC 6257) [3] | MIC Coagulase Negative Staphylococcus (GC 4548) ([3]; strain GC 4548) | MIC Coagulase Negative Staphylococcus (GC 4549) ([3]; strain GC 4549) | MIC Coagulase Negative Staphylococcus (GC 6257) ([3]; strain GC 6257) | MIC Escherichia coli (GC 4560) [4]
1 µg/mL: MIC Streptococcus pneumoniae (ATCC 6301) [2] | MIC Streptococcus pneumoniae (GC 4565) [2] | MIC Streptococcus pneumoniae (ATCC 6301) ([2]; inoculum 5×10^5 CFU/mL, strain ATCC 6301) | MIC Streptococcus pneumoniae (GC 4565) ([2]; inoculum 5×10^5 CFU/mL, strain GC 4565) | MIC Staphylococcus aureus (GC 4542) [3] | MIC Staphylococcus aureus (GC 4542) ([3]; strain GC 4542)
16 µg/mL: MIC Staphylococcus aureus (GC 3053) [3] | MIC Staphylococcus aureus (GC 3053) ([3]; strain GC 3053)
8 µg/mL: MIC Staphylococcus aureus (ATCC 29213) [3] | MIC Staphylococcus aureus (GC 1131) [3] | MIC Staphylococcus aureus (GC 3051) [3] | MIC Staphylococcus aureus (GC 4541) [3] | MIC Staphylococcus aureus (GC 4544) [3] | MIC Staphylococcus aureus (GC 4545) [3] | MIC Staphylococcus aureus (ATCC 29213) ([3]; strain ATCC 29213) | MIC Staphylococcus aureus (GC 1131) ([3]; strain GC 1131) | MIC Staphylococcus aureus (GC 3051) ([3]; strain GC 3051) | MIC Staphylococcus aureus (GC 4541) ([3]; strain GC 4541) | MIC Staphylococcus aureus (GC 4544) ([3]; strain GC 4544) | MIC Staphylococcus aureus (GC 4545) ([3]; strain GC 4545)
4 µg/mL: MIC Enterococcus faecium (GC 4557) [1] | MIC Enterococcus faecium (GC 4557) ([1]; strain GC 4557) | MIC Streptococcus agalactiae (GC 4564) [2] | MIC Streptococcus agalactiae (GC 4564) ([2]; inoculum 5×10^5 CFU/mL, strain GC 4564) | MIC Coagulase Negative Staphylococcus (GC 4547) [3] | MIC Coagulase Negative Staphylococcus (GC 4551) [3] | MIC Staphylococcus aureus-SMITH (GC 4543) [3] | MIC Staphylococcus haemolyticus (GC 4546) [3] | MIC Staphylococcus aureus-SMITH (GC 4543) ([3]; strain GC 4543) | MIC Staphylococcus haemolyticus (GC 4546) ([3]; strain GC 4546) | MIC Coagulase Negative Staphylococcus (GC 4547) ([3]; strain GC 4547) | MIC Coagulase Negative Staphylococcus (GC 4551) ([3]; strain GC 4551)
64 µg/mL: MIC Enterococcus faecalis (GC 3059) [1] | MIC Enterococcus faecalis (GC 4554) [1] | MIC Enterococcus faecalis (GC 4554) ([1]; strain GC 4554) | MIC Enterococcus faecalis (GC 3059) ([1]; inoculum 5×10^5 CFU/mL, strain GC 3059) | MIC Escherichia coli (GC 4559) [4]
